Key:
ICAM2+ ECs [1] = experiment: Expansion of purified ICAM2+ ECs for 2 days in 2D Matrigel system; assay type: cell-based, mouse
Method: FIGS. 14A-14G. ROCK suppression continuously promotes the expansion of ECs. (FIG. 14A) ICAM2+ ECs were further incubated with PBS (Control), Y27632 (10┌ M), VEGF-A (50 ng/ml; VA) or Y27632 (10┌ M) plus VEGF-A (50 ng/ml) for 2 days, and analyses were performed at day 8.5. (FIG. 14B) Immunofluorescence images showing CD144+ EC colonies, ┌ SMA+MCs, and DAPI+ nuclei. Scale bars represent 100┌ m. (FIG. 14C) Representative FACS analysis of CD31+/CD144+ ECs. (FIG. 14D) % of CD31+/CD144+ EC population. Each group, n=3. *p<0.01 versus Control. (FIG. 14E) Relative cell number of ICAM2+ ECs. Each group, n=3. *p<0.01 versus Control; ^#p<0.01 versus VEGF-A. (FIG. 14F) Relative population of CD31+/CD144+ ECs. Population of CD31+/CD144+ ECs grown without VEGF-A and Y27632 was regarded as 100%. Each group, n=3. *p<0.01 versus Control; ^#p<0.01 versus VEGF-A. (FIG. 14G) % of adherent ICAM2+ECs onto plate at 6 hrs. Each group, n=3. *p<0.05 versus VEGF-A.
E14tg2a ESC cell line was a generous gift from Dr. Jun K. Yamashita (Kyoto University), and R1 ESC cell line was purchased from American Type Cell Culture. Mouse iPSC derived from FVB strain was a generous gift from Drs. Hyun-Jai Cho and Hyo-Soo Kim (Seoul National University Hospital). […]

ICAM2+ ECs [2] = experiment: Cell adhesion assay, ICAM2+ ECs; assay type: cell-based, mouse; details: 6 hrs after plating; in the presence of VEGF-A
Method: Sorted Flk1+ MPCs or ICAM2+ ECs were plated onto Matrigel coated plates at a density of 10,000 cells/cm^2. Six hrs after plating, non-adherent cells were removed by washing and the cell number of adherent cells was counted following trypsinization. The percentage of adherent cells was calculated as (counted cell number/initial seeded cell number)×100.

C[C@@H](N)[C@H]1CC[C@H](C(=O)Nc2ccncc2)CC1 [Y27632]
decrease of CD31+/CD144+ EC population from the initial population of ˜90% (ICAM2+ ECs [1]; day 8.5, agent alone, ˜30% without either agent): ~22% | increase of total cell number (ICAM2+ ECs [1]; day 8.5, compared to Control without VEGF-A and Y27632): ~1.8 fold | adhesion of ICAM2+ ECs onto the plate (ICAM2+ ECs [2]): 1.3 fold
